Values of other authors as cited in patent publication US20150025006A1, “Pharmaceutical Combinations Including Anti-Inflammatory and Antioxidant Conjugates Useful for Treating Metabolic Disorders” (Genmedica Therapeutics SL, priority 2011, published 2015).

Experiments:
[1] = test system: Zucker fa/fa rats or ob/ob mice; settings: 120 mg/kg/day, subcutaneous infusion, 3-4 weeks
human diabetic patients = settings: 4.5 g/day of salsalate

| Compound | anti-diabetic effects [1] | side effects, such as tinnitus, enhanced by (human diabetic patients) |
| --- | --- | --- |
| O=C(O)c1ccccc1O [Salicylate] | anti-diabetic effects, reduction in fasting blood glucose, and glucose tolerance improvement |  |
| O=C(Oc1ccccc1C(=O)O)c1ccccc1O [salsalate] |  | 66% |
